pIC50: −log10 of the molar value.
The molecules below were run against T1, mPDE10A7 (Mus musculus, UniProt Q8CA95) (assay: mPDE10A7 enzyme inhibition (IMAP fluorescence polarization)). Settings: fluorescein labeled cAMP or cGMP substrate, 30 min at room temperature.
T1 sequence (Q8CA95 446-763 limits assumed): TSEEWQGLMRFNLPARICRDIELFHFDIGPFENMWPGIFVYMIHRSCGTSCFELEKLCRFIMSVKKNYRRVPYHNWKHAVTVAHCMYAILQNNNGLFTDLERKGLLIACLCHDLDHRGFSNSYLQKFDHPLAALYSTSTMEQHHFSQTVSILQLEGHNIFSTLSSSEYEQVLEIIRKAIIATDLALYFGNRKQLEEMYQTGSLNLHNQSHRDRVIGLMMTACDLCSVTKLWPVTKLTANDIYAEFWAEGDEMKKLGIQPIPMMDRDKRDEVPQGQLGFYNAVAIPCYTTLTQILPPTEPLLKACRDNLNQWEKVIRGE
Type: biochemical
Procedure: Enzyme Activity. To analyze the enzyme activity, 5 μL of serial diluted mPDE10A7 containing lysate were incubated with equal volumes of diluted (100-fold) fluorescein labeled cAMP or cGMP for 30 min in MDC HE 96-well assay plates (Molecular Devices Corp., Sunnyvale Calif.) at room temperature. Both the enzyme and the substrates were diluted in the following assay buffer: Tris/HCl (pH 8.0) 50 mM, MgCl2 5 mM, 2-mercaptoethanol 4 mM, and BSA 0.33 mg/mL. After incubation, the reaction was stopped by adding 20 μL of diluted (400-fold) binding reagents and was incubated for an hour at room temperature. The plates were counted in an Analyst GT (Molecular Devices) for fluorescence polarization. An IMAP assay kit (Molecular Devices) was used to assess enzyme properties of mPDE10A7. Data were analyzed with SOFTMAX PRO software (Molecular Devices).
Enzyme Inhibition. To check the inhibition profile, 10 μL of serial diluted compounds were incubated with 30 μl of diluted PDE enzymes in a 96-well polystyrene assay plate for 30 min at room temperature. After incubation, 5 μL of the compound-enzyme mixture were aliquoted into a MDC HE black plate, mixed with 5 μl of 100-fold diluted fluorescein labeled substrates (cAMP or cGMP), and incubated for 30 min at room temperature. The reaction was stopped by adding 20 μL of diluted binding reagents and counted in an Analyst GT for fluorescence polarization. The data were analyzed with SoftMax Pro.

SMILES	pIC50
COc1cc2nncc(-c3ccc(N4CCC(O)(c5ccccn5)CC4)nc3)c2cc1OC [Cpd 2, 1-(5-(6,7-dimethoxycinnolin-4-yl)pyridin-2-yl)-4-(pyridin-2-yl)piperidin-4-ol]	8.25
COc1cc2nncc(-c3cnc(N4CCC(O)(C5CC5)CC4)c(C)c3)c2cc1OC [Cpd 4, 4-cyclopropyl-1-(5-(6,7-dimethoxycinnolin-4-yl)-3-methylpyridin-2-yl)piperidin-4-ol]	8.55
COc1cc2nncc(-c3cnc(N4CCC(C)(O)CC4)c(C)c3)c2cc1OC [Cpd 7, 1-(5-(6,7-dimethoxycinnolin-4-yl)-3-methylpyridin-2-yl)-4-methylpiperidin-4-ol]	9.22
COc1cc2nncc(-c3cnc(N4CCC(O)(c5ccccn5)CC4)c(Cl)c3)c2cc1OC [Cpd 8, 1-(3-chloro-5-(6,7-dimethoxycinnolin-4-yl)pyridin-2-yl)-4-(pyridin-2-yl)piperidin-4-ol]	8.51
COC[C@H]1CCCN1c1ncc(-c2cnnc3cc(OC)c(OC)cc23)cc1Cl [Cpd 9]	9.00
COc1cc2cncc(-c3cnc(N4CCC(C(C)(C)O)CC4)c(C)c3)c2cc1OC [Cpd 12]	7.83
COc1cc2nncc(-c3cnc(N4CCC(O)(c5cccnc5)CC4)c(C)c3)c2cc1OC [Cpd 13]	8.99
COc1cc2nncc(-c3ccc(N4CCN(c5ncc(Cl)cc5Cl)CC4)nc3)c2cc1OC [Cpd 14]	6.38
COc1cc2nncc(-c3ccc(N4CCN(c5cccc(C(F)(F)F)c5)CC4)nc3)c2cc1OC [Cpd 15]	6.90
COc1cc2nncc(-c3cnc(N4CCN(c5ccc(F)cc5F)CC4)c(C)c3)c2cc1OC [Cpd 16]	7.96
COc1cc2nncc(-c3ccc(N4CCN(CC5CC5)CC4)nc3)c2cc1OC [Cpd 17]	7.99
COc1cc2nncc(-c3ccc(N4CCN(C(C)=O)CC4)nc3)c2cc1OC [Cpd 18]	8.18

Now from value to molecule:

pIC50	SMILES
7.22	COc1cc2nncc(-c3ccc(N4CCCC4CN(C)C)nc3)c2cc1OC (centres unmarked) [Cpd 20]
8.31	COc1cc2nncc(-c3ccc(N4CCN(C(=O)C5CC5)CC4)nc3)c2cc1OC [Cpd 22]
8.37	COc1cc2nccc(-c3cnc(N4CCC(C(C)(C)O)CC4)c(C)c3)c2cc1OC [Cpd 24]
8.13	COc1cc2nncc(-c3ccc(N4CCCC4c4cccs4)nc3)c2cc1OC (centres unmarked) [Cpd 25]
8.25	COc1cc2nncc(-c3ccc(N4CCC(C(=O)N5CCOCC5)CC4)nc3)c2cc1OC [Cpd 27]
8.68	COc1cc2nncc(-c3cnc(N4CCC(C(N)=O)CC4)c(C)c3)c2cc1OC [Cpd 28]
8.02	CCOC(=O)C1CCN(c2ccc(-c3cnnc4cc(OC)c(OC)cc34)cn2)CC1 [Cpd 30]
6.72	COc1cc2c(-c3ccc(N4CCC(O)(c5ccccc5)CC4)nc3)cnnc2cc1C [Cpd 35]
